The values below are quoted from earlier work in patent US11033601B2, “Selective inhibition of V1b for treating fatty liver” (The Regents of the University of Colorado, priority 2017, dated 2021).

This series concerns the target V2 receptors (Homo sapiens, UniProt P30518).

Chain of V2 receptors (P30518 whole entry): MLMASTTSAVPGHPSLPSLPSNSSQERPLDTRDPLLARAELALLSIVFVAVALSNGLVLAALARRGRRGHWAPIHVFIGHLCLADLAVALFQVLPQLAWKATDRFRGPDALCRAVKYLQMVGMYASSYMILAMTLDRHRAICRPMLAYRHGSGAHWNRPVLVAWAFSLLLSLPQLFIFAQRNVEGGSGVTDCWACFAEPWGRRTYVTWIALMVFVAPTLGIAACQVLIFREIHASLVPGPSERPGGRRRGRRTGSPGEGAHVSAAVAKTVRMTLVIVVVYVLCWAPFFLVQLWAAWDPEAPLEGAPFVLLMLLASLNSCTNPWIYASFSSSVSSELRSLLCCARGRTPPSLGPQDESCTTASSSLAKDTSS

Take `COc1ccc(S(=O)(=O)N2C(=O)[C@@](c3ccccc3OC)(N3C[C@H](O)C[C@H]3C(=O)N(C)C)c3cc(Cl)ccc32)c(OC)c1` [Nelivaptan]: the “effects on V2 receptors” value was “little effects”.
